What was measured:
[1] = test system: B. subtilis 168; test: Bliss interaction score (quartile over a dose matrix) (fitness difference); higher = more antagonism (negative = synergy)
Procedure, shortened: (§1)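 Quartiles summarise the Bliss score over technical, biological and donor/recipient replicates, where the score is observed minus expected fitness under a product model. Expected fitness uses single-drug values inferred from combination data. Fitness is OD595 at entry into stationary phase over the plate's robust no-drug mean, capped at 1.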

[2] = test system: S. aureus DSM 20231; test: as above
Procedure, shortened: as §1

[3] = test system: S. aureus Newman; test: as above
Procedure, shortened: as §1

[4] = test system: S. pneumoniae D39V; test: as above
Procedure, shortened: as §1

[5] = test system: B. subtilis 168; test: fitness (endpoint OD595 vs no drug) (fraction); higher = more growth
Procedure, shortened: (§2)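 Fitness compares growth at the stationary-phase transition with the robust mean of no-drug control wells, as a ratio of optical densities. The ratio is capped at 1. Wells of 384-well plates held 30 µl, or 55 µl for S. pneumoniae, inoculated at OD595 0.01. Readings at OD595 every 30 min for 14 h at 37 °C were corrected against the first reading.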

[6] = test system: S. aureus DSM 20231; test: as above
Procedure, shortened: as §2

[7] = test system: S. aureus Newman; test: as above
Procedure, shortened: as §2
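Wherever Bliss interaction score (quartile over a dose matrix) is given: first quartile when negative (synergy) and third quartile when positive (antagonism).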

CC[C@H]1OC(=O)[C@H](C)[C@@H](O[C@H]2C[C@@](C)(OC)[C@@H](O)[C@H](C)O2)[C@H](C)[C@@H](O[C@@H]2O[C@H](C)C[C@H](N(C)C)[C@H]2O)[C@](C)(O)C[C@@H](C)CN(C)[C@H](C)[C@@H](O)[C@]1(C)O [Azithromycin] + CN1C2=CC=CC=C2N=C3C1=CC=CC3=O [Pyocyanin]
Settings | Bliss interaction score
[1] | -0.0732
[2] | -0.0596
[3] | 0.0847
[4] | -0.0827

fitness
Settings | partner 1.25 µg/mL | partner 2.5 µg/mL | partner 5 µg/mL
[5], first compound 0.25 µg/mL | 0.838 | 0.792 | 0.648
[5], first compound 0.5 µg/mL | – | 0.631 | –
[6], first compound 0.125 µg/mL | 0.851 | 0.789 | 0.694
[6], first compound 0.25 µg/mL | 0.797 | 0.8 | 0.666
[7], first compound 0.125 µg/mL | 0.865 | 0.788 | –
[7], first compound 0.25 µg/mL | 0.856 | 0.759 | –
[7], first compound 0.5 µg/mL | – | – | 0.21

CC[C@H]1OC(=O)[C@H](C)[C@@H](O[C@H]2C[C@@](C)(OC)[C@@H](O)[C@H](C)O2)[C@H](C)[C@@H](O[C@@H]2O[C@H](C)C[C@H](N(C)C)[C@H]2O)[C@](C)(O)C[C@@H](C)CN(C)[C@H](C)[C@@H](O)[C@]1(C)O [Azithromycin] + COc1c(N2C[C@@H]3CCCN[C@@H]3C2)c(F)cc2c(=O)c(C(=O)O)cn(C3CC3)c12 [Moxifloxacin]
Settings | Bliss interaction score
[1] | 0.0244
[2] | 0.0773
[3] | 0.118
[4] | 0.0652

fitness
Settings | first compound 0.125 µg/mL | first compound 0.25 µg/mL | first compound 0.5 µg/mL | first compound 1 µg/mL | first compound 2 µg/mL
[5], partner 0.0312 µg/mL | – | – | 0.0678 | 0.0582 | 0.0414
[5], partner 0.0625 µg/mL | – | 0.0511 | 0.0366 | 0.0237 | 0.0289
[5], partner 0.125 µg/mL | – | 0.0301 | 0.0372 | 0.0336 | 0.02
[5], partner 2 µg/mL | – | 0.027 | 0.0186 | 0.0208 | –
[5], partner 4 µg/mL | – | 0.0147 | 0.0272 | 0.0194 | –
[5], partner 8 µg/mL | – | 0.0347 | 0.042 | 0.0214 | –
[6], partner 0.0075 µg/mL | 0.727 | 0.747 | – | – | –
[6], partner 0.015 µg/mL | 0.687 | 0.772 | 0.592 | – | –
[6], partner 0.03 µg/mL | 0.656 | 0.737 | 0.556 | – | –
[7], partner 0.0075 µg/mL | 0.717 | 0.723 | – | – | –
[7], partner 0.015 µg/mL | 0.666 | – | 0.415 | – | –
[7], partner 0.03 µg/mL | – | – | 0.307 | – | –

fitness, [6], one replicate
Settings | first compound 0.125 µg/mL | first compound 0.25 µg/mL | first compound 0.5 µg/mL
partner 0.06 µg/mL | 0.633 | 0.623 | 0.587
partner 0.12 µg/mL | 0.528 | 0.559 | 0.452

CC[C@H]1OC(=O)[C@H](C)[C@@H](O[C@H]2C[C@@](C)(OC)[C@@H](O)[C@H](C)O2)[C@H](C)[C@@H](O[C@@H]2O[C@H](C)C[C@H](N(C)C)[C@H]2O)[C@](C)(O)C[C@@H](C)CN(C)[C@H](C)[C@@H](O)[C@]1(C)O [Azithromycin] + CC1=C\[C@@H](O)CC(=O)Cc2nc(co2)C(=O)N2CCC=C2C(=O)O[C@H](C(C)C)[C@H](C)/C=C/C(=O)NC\C=C\1 [Virginiamycin M1]
Settings | Bliss interaction score
[1] | 0.0627
[2] | -0.0726
[3] | 0.0851
[4] | 0.0642

fitness
Settings | partner 0.0625 µg/mL | partner 0.125 µg/mL | partner 0.25 µg/mL
[5], first compound 0.25 µg/mL | 0.911 | 0.876 | 0.97
[5], first compound 0.5 µg/mL | 0.803 | 0.814 | 0.869
[6], first compound 0.125 µg/mL | 0.817 | 0.872 | 0.894
[6], first compound 0.25 µg/mL | 0.77 | 0.873 | 0.854
[6], first compound 0.5 µg/mL | 0.515 | 0.362 | –
[7], first compound 0.125 µg/mL | 0.912 | 0.904 | 0.912
[7], first compound 0.25 µg/mL | 0.935 | 0.913 | 0.92
[7], first compound 0.5 µg/mL | 0.744 | 0.707 | 0.722

fitness, one replicate
Settings | first compound 0.125 µg/mL | first compound 0.25 µg/mL | first compound 0.5 µg/mL
[6], partner 0.5 µg/mL | 0.981 | 0.86 | 0.728
[6], partner 1 µg/mL | 0.791 | 0.798 | 0.505
[7], partner 0.5 µg/mL | 0.937 | 0.9 | 0.859
[7], partner 1 µg/mL | ≥ 1 | ≥ 1 | 0.89
[7], partner 2 µg/mL | 0.904 | 0.907 | 0.764

CC[C@H]1OC(=O)[C@H](C)[C@@H](O[C@H]2C[C@@](C)(OC)[C@@H](O)[C@H](C)O2)[C@H](C)[C@@H](O[C@@H]2O[C@H](C)C[C@H](N(C)C)[C@H]2O)[C@](C)(O)C[C@@H](C)CN(C)[C@H](C)[C@@H](O)[C@]1(C)O [Azithromycin] + C[C@@H]1O[C@@H]1P(=O)(O)O [Fosfomycin]
Settings | Bliss interaction score
[1] | 0.0745
[2] | -0.0651
[3] | -0.12
[4] | 0.0708

fitness
Settings | partner 0.781 µg/mL | partner 1.562 µg/mL | partner 3.124 µg/mL | partner 6.248 µg/mL
[5], first compound 0.25 µg/mL | – | 0.713 | 0.61 | 0.445
[5], first compound 0.5 µg/mL | – | 0.622 | 0.582 | 0.442
[6], first compound 0.125 µg/mL | 0.728 | 0.615 | 0.509 | –
[6], first compound 0.25 µg/mL | 0.68 | 0.625 | 0.554 | –
[6], first compound 0.5 µg/mL | 0.526 | 0.306 | 0.124 | –
[7], first compound 0.125 µg/mL | 0.622 | 0.525 | 0.18 | –
[7], first compound 0.25 µg/mL | 0.597 | 0.429 | 0.0915 | –
[7], first compound 0.5 µg/mL | 0.312 | 0.128 | 0.0235 | –

[5], first compound 2 µg/mL, one replicate
Settings | fitness
partner 1.562 µg/mL | 0.367
partner 3.124 µg/mL | 0.176
partner 6.248 µg/mL | 0.0795

CC[C@H]1OC(=O)[C@H](C)[C@@H](O[C@H]2C[C@@](C)(OC)[C@@H](O)[C@H](C)O2)[C@H](C)[C@@H](O[C@@H]2O[C@H](C)C[C@H](N(C)C)[C@H]2O)[C@](C)(O)C[C@@H](C)CN(C)[C@H](C)[C@@H](O)[C@]1(C)O [Azithromycin] + C[n+]1ccc(-c2cc[n+](C)cc2)cc1 [Paraquat]
Settings | Bliss interaction score
[1] | 0.0865
[2] | -0.095
[3] | -0.0372
[4] | 0.0486

fitness
Settings | partner 1.25 µg/mL | partner 2.5 µg/mL | partner 5 µg/mL
[5], first compound 0.25 µg/mL | 0.947 | 0.919 | 0.884
[5], first compound 0.5 µg/mL | 0.906 | 0.866 | 0.759
[6], first compound 0.125 µg/mL | 0.827 | 0.846 | 0.794
[6], first compound 0.25 µg/mL | 0.814 | 0.75 | 0.823
[6], first compound 0.5 µg/mL | 0.473 | 0.51 | 0.514
[7], first compound 0.125 µg/mL | 0.924 | 0.904 | 0.853
[7], first compound 0.25 µg/mL | 0.882 | 0.845 | 0.789
[7], first compound 0.5 µg/mL | 0.55 | 0.575 | 0.496
